PubChem BioAssay (NCI)
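1) Cells in 96-well plates. 2) Compound, 48 h, 5 concentrations. 3) Linear interpolation between surrounding doses. 4) Unreached endpoint = highest concentration. TGI marks complete inhibition of growth.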

Tests used:
Assay in all cases: NCI anticancer screen, dose series, 48 h
SK-MEL-2 melanoma = tested on: SK-MEL-2 melanoma
OVCAR-5 ovarian = tested on: OVCAR-5 ovarian
MDA-MB-435 = tested on: MDA-MB-435
OVCAR-8 ovarian = tested on: OVCAR-8 ovarian
SK-OV-3 ovarian = tested on: SK-OV-3 ovarian
MOLT-4 leukemia = tested on: MOLT-4 leukemia
K-562 leukemia = tested on: K-562 leukemia
RPMI-8226 leukemia = tested on: RPMI-8226 leukemia
MDA-N = tested on: MDA-N
TK-10 renal = tested on: TK-10 renal
RXF 393 renal = tested on: RXF 393 renal
MDA-MB-231 breast = tested on: MDA-MB-231 breast
DU-145 prostate = tested on: DU-145 prostate
UACC-257 melanoma = tested on: UACC-257 melanoma
NCI/ADR-RES ovarian = tested on: NCI/ADR-RES ovarian
M14 melanoma = tested on: M14 melanoma
SF-539 CNS = tested on: SF-539 CNS
NCI-H23 lung = tested on: NCI-H23 lung
ACHN renal = tested on: ACHN renal
MCF7 breast = tested on: MCF7 breast
U251 CNS = tested on: U251 CNS
786-0 renal = tested on: 786-0 renal
SK-MEL-5 melanoma = tested on: SK-MEL-5 melanoma
HT29 colon = tested on: HT29 colon
CCRF-CEM leukemia = tested on: CCRF-CEM leukemia
MALME-3M melanoma = tested on: MALME-3M melanoma
EKVX NSCLC = tested on: EKVX NSCLC
HOP-92 NSCLC = tested on: HOP-92 NSCLC
LOX IMVI melanoma = tested on: LOX IMVI melanoma
BT-549 breast = tested on: BT-549 breast
IGROV1 ovarian = tested on: IGROV1 ovarian
HCT-116 colon = tested on: HCT-116 colon
HL-60(TB) leukemia = tested on: HL-60(TB) leukemia
KM12 colon = tested on: KM12 colon
NCI-H522 lung = tested on: NCI-H522 lung
SF-295 CNS = tested on: SF-295 CNS
HCT-15 colon = tested on: HCT-15 colon
SF-268 CNS = tested on: SF-268 CNS
NCI-H226 lung = tested on: NCI-H226 lung
SW-620 colon = tested on: SW-620 colon
CAKI-1 renal = tested on: CAKI-1 renal
HS 578T breast = tested on: HS 578T breast
HOP-62 NSCLC = tested on: HOP-62 NSCLC
UO-31 renal = tested on: UO-31 renal
SNB-19 CNS = tested on: SNB-19 CNS
SNB-75 CNS = tested on: SNB-75 CNS
HCC-2998 colon = tested on: HCC-2998 colon
OVCAR-4 ovarian = tested on: OVCAR-4 ovarian
SN12C renal = tested on: SN12C renal
PC-3 prostate = tested on: PC-3 prostate
A549 NSCLC = tested on: A549 NSCLC
UACC-62 melanoma = tested on: UACC-62 melanoma
NCI-H460 lung = tested on: NCI-H460 lung
SK-MEL-28 melanoma = tested on: SK-MEL-28 melanoma
OVCAR-3 ovarian = tested on: OVCAR-3 ovarian
A498 renal = tested on: A498 renal
SR leukemia = tested on: SR leukemia
T-47D breast = tested on: T-47D breast
COLO 205 colon = tested on: COLO 205 colon

COc1ccc(/C=C/c2sc3ccccc3[n+]2CCCCI)cc1OC
TGI (SK-MEL-2 melanoma): 9.47 µM | TGI (OVCAR-5 ovarian): > 10 µM | TGI (MDA-MB-435): > 10 µM | TGI (OVCAR-8 ovarian): > 10 µM | TGI (SK-OV-3 ovarian): > 10 µM | TGI (MOLT-4 leukemia): > 10 µM | TGI (K-562 leukemia): > 10 µM | TGI (RPMI-8226 leukemia): > 10 µM | TGI (MDA-N): > 10 µM | TGI (TK-10 renal): > 10 µM | TGI (RXF 393 renal): > 10 µM | TGI (MDA-MB-231 breast): > 10 µM | TGI (DU-145 prostate): > 10 µM | TGI (UACC-257 melanoma): > 10 µM | TGI (NCI/ADR-RES ovarian): > 10 µM | TGI (M14 melanoma): > 10 µM | TGI (SF-539 CNS): > 10 µM | TGI (NCI-H23 lung): > 10 µM | TGI (ACHN renal): > 10 µM | TGI (MCF7 breast): > 10 µM | TGI (U251 CNS): > 10 µM | TGI (786-0 renal): > 10 µM | TGI (SK-MEL-5 melanoma): > 10 µM | TGI (HT29 colon): > 10 µM | TGI (CCRF-CEM leukemia): > 10 µM | TGI (MALME-3M melanoma): > 10 µM | TGI (EKVX NSCLC): > 10 µM | TGI (HOP-92 NSCLC): > 10 µM | TGI (LOX IMVI melanoma): > 10 µM | TGI (BT-549 breast): > 10 µM | TGI (IGROV1 ovarian): > 10 µM | TGI (HCT-116 colon): > 10 µM | TGI (HL-60(TB) leukemia): 7.48 µM | TGI (KM12 colon): > 10 µM | TGI (NCI-H522 lung): > 10 µM | TGI (SF-295 CNS): > 10 µM | TGI (HCT-15 colon): > 10 µM | TGI (SF-268 CNS): > 10 µM | TGI (NCI-H226 lung): > 10 µM | TGI (SW-620 colon): > 10 µM | TGI (CAKI-1 renal): > 10 µM | TGI (HS 578T breast): > 10 µM | TGI (HOP-62 NSCLC): > 10 µM | TGI (UO-31 renal): > 10 µM | TGI (SNB-19 CNS): > 10 µM | TGI (SNB-75 CNS): > 10 µM | TGI (HCC-2998 colon): > 10 µM | TGI (OVCAR-4 ovarian): > 10 µM | TGI (SN12C renal): > 10 µM | TGI (PC-3 prostate): > 10 µM | TGI (A549 NSCLC): > 10 µM | TGI (UACC-62 melanoma): > 10 µM | TGI (NCI-H460 lung): > 10 µM | TGI (SK-MEL-28 melanoma): > 10 µM | TGI (OVCAR-3 ovarian): > 10 µM | TGI (A498 renal): > 10 µM

Cc1ccc(Cc2n[nH]c(=O)n2-c2ccccc2)cc1
TGI (SK-MEL-2 melanoma): > 100 µM | TGI (OVCAR-5 ovarian): > 100 µM | TGI (MDA-MB-435): > 100 µM | TGI (OVCAR-8 ovarian): > 100 µM | TGI (MOLT-4 leukemia): > 100 µM | TGI (K-562 leukemia): > 100 µM | TGI (RPMI-8226 leukemia): 76 µM | TGI (MDA-N): > 100 µM | TGI (TK-10 renal): > 100 µM | TGI (RXF 393 renal): > 100 µM | TGI (MDA-MB-231 breast): > 100 µM | TGI (DU-145 prostate): > 100 µM | TGI (UACC-257 melanoma): > 100 µM | TGI (NCI/ADR-RES ovarian): > 100 µM | TGI (SF-539 CNS): > 100 µM | TGI (NCI-H23 lung): > 100 µM | TGI (ACHN renal): > 100 µM | TGI (MCF7 breast): > 100 µM | TGI (U251 CNS): > 100 µM | TGI (786-0 renal): > 100 µM | TGI (SK-MEL-5 melanoma): > 100 µM | TGI (HT29 colon): > 100 µM | TGI (MALME-3M melanoma): > 100 µM | TGI (BT-549 breast): > 100 µM | TGI (IGROV1 ovarian): > 100 µM | TGI (HCT-116 colon): > 100 µM | TGI (HL-60(TB) leukemia): > 100 µM | TGI (KM12 colon): > 100 µM | TGI (SF-295 CNS): > 100 µM | TGI (HCT-15 colon): > 100 µM | TGI (SF-268 CNS): > 100 µM | TGI (NCI-H226 lung): > 100 µM | TGI (SW-620 colon): > 100 µM | TGI (CAKI-1 renal): > 100 µM | TGI (SR leukemia): > 100 µM | TGI (UO-31 renal): > 100 µM | TGI (SNB-19 CNS): > 100 µM | TGI (T-47D breast): 61.8 µM | TGI (SNB-75 CNS): > 100 µM | TGI (HCC-2998 colon): > 100 µM | TGI (SN12C renal): > 100 µM | TGI (PC-3 prostate): > 100 µM | TGI (A549 NSCLC): > 100 µM | TGI (UACC-62 melanoma): > 100 µM | TGI (NCI-H460 lung): > 100 µM | TGI (SK-MEL-28 melanoma): > 100 µM | TGI (A498 renal): > 100 µM

Nc1cc(C(=O)O)[nH]c(=O)n1
TGI (SK-MEL-2 melanoma): > 100 µM | TGI (OVCAR-5 ovarian): > 100 µM | TGI (MDA-MB-435): > 100 µM | TGI (OVCAR-8 ovarian): > 100 µM | TGI (SK-OV-3 ovarian): > 100 µM | TGI (MOLT-4 leukemia): > 100 µM | TGI (K-562 leukemia): > 100 µM | TGI (RPMI-8226 leukemia): > 100 µM | TGI (MDA-N): > 100 µM | TGI (TK-10 renal): > 100 µM | TGI (RXF 393 renal): > 100 µM | TGI (MDA-MB-231 breast): > 100 µM | TGI (DU-145 prostate): > 100 µM | TGI (UACC-257 melanoma): > 100 µM | TGI (NCI/ADR-RES ovarian): > 100 µM | TGI (M14 melanoma): > 100 µM | TGI (NCI-H23 lung): > 100 µM | TGI (ACHN renal): > 100 µM | TGI (MCF7 breast): > 100 µM | TGI (U251 CNS): > 100 µM | TGI (786-0 renal): > 100 µM | TGI (SK-MEL-5 melanoma): > 100 µM | TGI (HT29 colon): > 100 µM | TGI (CCRF-CEM leukemia): > 100 µM | TGI (MALME-3M melanoma): > 100 µM | TGI (EKVX NSCLC): > 100 µM | TGI (HOP-92 NSCLC): > 100 µM | TGI (LOX IMVI melanoma): > 100 µM | TGI (BT-549 breast): > 100 µM | TGI (IGROV1 ovarian): > 100 µM | TGI (HCT-116 colon): > 100 µM | TGI (HL-60(TB) leukemia): > 100 µM | TGI (KM12 colon): > 100 µM | TGI (NCI-H522 lung): > 100 µM | TGI (SF-295 CNS): > 100 µM | TGI (HCT-15 colon): > 100 µM | TGI (SF-268 CNS): > 100 µM | TGI (COLO 205 colon): > 100 µM | TGI (NCI-H226 lung): > 100 µM | TGI (SW-620 colon): > 100 µM | TGI (CAKI-1 renal): > 100 µM | TGI (SR leukemia): > 100 µM | TGI (HS 578T breast): > 100 µM | TGI (HOP-62 NSCLC): > 100 µM | TGI (UO-31 renal): > 100 µM | TGI (SNB-19 CNS): > 100 µM | TGI (HCC-2998 colon): > 100 µM | TGI (OVCAR-4 ovarian): > 100 µM | TGI (SN12C renal): > 100 µM | TGI (PC-3 prostate): > 100 µM | TGI (A549 NSCLC): > 100 µM | TGI (UACC-62 melanoma): > 100 µM | TGI (NCI-H460 lung): > 100 µM | TGI (SK-MEL-28 melanoma): > 100 µM | TGI (OVCAR-3 ovarian): > 100 µM | TGI (A498 renal): > 100 µM

CC1(C)C2CCC(CN)(C2)C1O (centres undefined)
TGI (MDA-MB-435): > 100 µM | TGI (OVCAR-8 ovarian): > 100 µM | TGI (MOLT-4 leukemia): > 100 µM | TGI (K-562 leukemia): > 100 µM | TGI (RPMI-8226 leukemia): > 100 µM | TGI (MDA-N): > 100 µM | TGI (TK-10 renal): > 100 µM | TGI (MDA-MB-231 breast): > 100 µM | TGI (UACC-257 melanoma): > 100 µM | TGI (NCI/ADR-RES ovarian): > 100 µM | TGI (NCI-H23 lung): > 100 µM | TGI (ACHN renal): > 100 µM | TGI (U251 CNS): > 100 µM | TGI (CCRF-CEM leukemia): > 100 µM | TGI (EKVX NSCLC): > 100 µM | TGI (HOP-92 NSCLC): > 100 µM | TGI (BT-549 breast): > 100 µM | TGI (HL-60(TB) leukemia): > 100 µM | TGI (KM12 colon): > 100 µM | TGI (HCT-15 colon): > 100 µM | TGI (SF-268 CNS): > 100 µM | TGI (NCI-H226 lung): > 100 µM | TGI (SW-620 colon): > 100 µM | TGI (CAKI-1 renal): > 100 µM | TGI (SR leukemia): > 100 µM | TGI (UO-31 renal): > 100 µM | TGI (SNB-19 CNS): > 100 µM | TGI (SNB-75 CNS): > 100 µM | TGI (HCC-2998 colon): > 100 µM | TGI (OVCAR-4 ovarian): > 100 µM | TGI (SN12C renal): > 100 µM | TGI (UACC-62 melanoma): > 100 µM | TGI (NCI-H460 lung): > 100 µM | TGI (SK-MEL-28 melanoma): > 100 µM | TGI (A498 renal): > 100 µM
